# From patent publication US5075289A, “9-R-azacyclic erythromycin antibiotics” (priority 1988, dated 1991)
# Read-outs that look alike come from different tables or passages of the source.
# Tests used:
# [1] = system: Staphylococcus aureus 45 RAR 2; experiment: microbe, parasite or virus in culture; assay type: cell-based; conditions: 45RAR2
# Description: (§1) The antimicrobial spectra of a number of compounds of the invention were tested by the following method:
# (§2) Twelve petri dishes containing successive aqueous dilutions of the test compound mixed with 10 ml of sterilized Brain Heart Infusion agar (Difco 0418-01-5) are prepared. Each plate is inoculated with 1:100 (or 1:10 for slow growing strains, primarily Micrococcus and Streptococcus) dilutions of up to 32 different microorganisms, using a Steers replicator block The inoculated plates are incubated at 35°-37° C. for 20-24 hours. In addition, a control plate, using BHI agar containing no test compound, is prepared and incubated at the beginning and end of each test.
# (§3) An additional plate containing a compound having known susceptibility patterns for the organisms being tested and belonging to the same antibiotic class as the test compound is also prepared and incubated as a further control, as well as to provide test-to-test comparability. Erythromycin A was used for this purpose.
# (§4) After incubation, each disk is read. The MIC is defined as the lowest concentration of drug yielding no growth, a slight haze, or sparsely isolated colonies on the inoculum spot as compared to the growth control.
# [2] = system: Staphylococcus epidermidis 3519; experiment: In vitro antibacterial activity, agar dilution MIC; assay type: cell-based; conditions: S. epidermidis 3519, Brain Heart Infusion agar, 20-24 hours, read-out: MIC
# Description: as §1, §2, §3, §4
# [3] = system: Escherichia coli Juhl; experiment: In vitro antibacterial activity, agar dilution MIC; assay type: cell-based
# Description: as §1, §2, §3, §4
# [4] = system: Staphylococcus aureus 45; experiment: In vitro antibacterial activity, agar dilution MIC; assay type: cell-based; conditions: S. aureus 45, Brain Heart Infusion agar, 20-24 hours, read-out: MIC
# Description: as §1, §2, §3, §4
# [5] = system: Escherichia coli DC-2; experiment: In vitro antibacterial activity, agar dilution MIC; assay type: cell-based
# Description: as §1, §2, §3, §4
# [6] = system: Streptococcus pyogenes EES61; experiment: In vitro antibacterial activity, agar dilution MIC; assay type: cell-based; conditions: S. pyogenes EES61, Brain Heart Infusion agar, 20-24 hours, read-out: MIC
# Description: as §1, §2, §3, §4
# [7] = system: Streptococcus pyogenes 2548 INDUC; experiment: In vitro antibacterial activity, agar dilution MIC; assay type: cell-based; conditions: S. pyogenes 2548 INDUC, Brain Heart Infusion agar, 20-24 hours, read-out: MIC
# Description: as §1, §2, §3, §4
# [8] = system: Staphylococcus aureus CMX 553; experiment: In vitro antibacterial activity, agar dilution MIC; assay type: cell-based; conditions: CMX553, S. aureus CMX 553, Brain Heart Infusion agar, 20-24 hours, read-out: MIC
# Description: as §1, §2, §3, §4
# [9] = system: Streptococcus agalactiae CMX 508; experiment: In vitro antibacterial activity, agar dilution MIC; assay type: cell-based; conditions: CMX508, S. agalactiae CMX 508, Brain Heart Infusion agar, 20-24 hours, read-out: MIC
# Description: as §1, §2, §3, §4
# [10] = system: Enterococcus faecium ATCC 8043; experiment: In vitro antibacterial activity, agar dilution MIC; assay type: cell-based
# Description: as §1, §2, §3, §4
# [11] = system: Staphylococcus aureus CMX 503A; experiment: In vitro antibacterial activity, agar dilution MIC; assay type: cell-based; conditions: CMX503A, S. aureus CMX 503A, Brain Heart Infusion agar, 20-24 hours, read-out: MIC
# Description: as §1, §2, §3, §4
# [12] = system: Staphylococcus aureus CMX 686B; experiment: In vitro antibacterial activity, agar dilution MIC; assay type: cell-based; conditions: CMX686B, S. aureus CMX 686B, Brain Heart Infusion agar, 20-24 hours, read-out: MIC
# Description: as §1, §2, §3, §4
# [13] = system: Staphylococcus aureus A5177; experiment: In vitro antibacterial activity, agar dilution MIC; assay type: cell-based; conditions: S. aureus A5177, Brain Heart Infusion agar, 20-24 hours, read-out: MIC
# Description: as §1, §2, §3, §4
# [14] = system: Escherichia coli SS; experiment: In vitro antibacterial activity, agar dilution MIC; assay type: cell-based; conditions: read-out: MIC
# Description: as §1, §2, §3, §4
# [15] = system: Micrococcus luteus ATCC 4698; experiment: In vitro antibacterial activity, agar dilution MIC; assay type: cell-based; conditions: ATCC4698, M. luteus ATCC 4698, Brain Heart Infusion agar, 20-24 hours, read-out: MIC
# Description: as §1, §2, §3, §4
# [16] = system: Streptococcus bovis A5169; experiment: In vitro antibacterial activity, agar dilution MIC; assay type: cell-based
# Description: as §1, §2, §3, §4
# [17] = system: Staphylococcus aureus ATCC 6538P; experiment: In vitro antibacterial activity, agar dilution MIC; assay type: cell-based; conditions: ATCC6538P, S. aureus ATCC 6538P, Brain Heart Infusion agar, 35-37° C., 20-24 hours, read-out: MIC
# Description: as §1, §2, §3, §4
# [18] = system: Micrococcus luteus ATCC 9341; experiment: In vitro antibacterial activity, agar dilution MIC; assay type: cell-based
# Description: as §1, §2, §3, §4
# [19] = system: Streptococcus pyogenes 930 CONST; experiment: In vitro antibacterial activity, agar dilution MIC; assay type: cell-based; conditions: 930CONST
# Description: as §1, §2, §3, §4
# [20] = system: Escherichia coli H560; experiment: In vitro antibacterial activity, agar dilution MIC; assay type: cell-based
# Description: as §1, §2, §3, §4
# [21] = system: Staphylococcus aureus 642A; experiment: In vitro antibacterial activity, agar dilution MIC; assay type: cell-based; conditions: S. aureus 642A, Brain Heart Infusion agar, 20-24 hours, read-out: MIC
# Description: as §1, §2, §3, §4
# [22] = system: Staphylococcus aureus NCTC 10649; experiment: In vitro antibacterial activity, agar dilution MIC; assay type: cell-based; conditions: NCTC10649, S. aureus NCTC 10649, Brain Heart Infusion agar, 20-24 hours, read-out: MIC
# Description: as §1, §2, §3, §4
# [23] = system: Streptococcus pyogenes C-203; experiment: In-vivo mouse protection assay (acute mouse protection test); parameters: species or system Swiss albino mice; conditions: 168 h
# Description: (§5) The acute mouse protection test is conducted on ten mice with each of three levels of drug. Mouse mortality is used to calculate an ED50 value, i.e., the dose of drug required to protect 50% of the test animals against death due to the inoculum challenge.
# (§6) The acute mouse protection test is conducted on female, Swiss albino mice, 18-20 grams in weight. […] To check the potency of the inoculum, a titration of the indicated test organism is carried out in control animals. The treatment group of animals is dosed with the test compound at 1 and 5 hours post infection and observed for 7 days. The ED50 values are calculated using the mortality data collected.
# [24] = system: Streptococcus pneumoniae (6303); experiment: as above; parameters: species or system Swiss albino mice; conditions: 168 h
# Description: as §5, §6
# [25] = system: Staphylococcus aureus (NCTC 10649); experiment: as above; parameters: species or system Swiss albino mice; conditions: 168 h
# Description: as §5, §6
structure (smiles),measurement,setting,value
CC[C@H]1OC(=O)[C@H](C)[C@@H](O[C@H]2C[C@@](C)(OC)[C@@H](O)[C@H](C)O2)[C@H](C)[C@@H](O[C@@H]2O[C@H](C)C[C@H](N(C)C)[C@H]2O)[C@](C)(O)C[C@@H](C)[C@@H](N2CCN(C(C)=O)CC2)[C@H](C)[C@@H](O)[C@]1(C)O [Example 16],MIC,[1],3.1 µg/mL
same,MIC,[2],1.56 µg/mL
same,MIC,"[3]; E. coli Juhl, Brain Heart Infusion agar, 20-24 hours, read-out: MIC",> 100 µg/mL
same,MIC,[4],1.56 µg/mL
same,MIC,"[5]; DC2, E. coli DC-2, Brain Heart Infusion agar, 20-24 hours, read-out: MIC",> 100 µg/mL
same,MIC,[6],0.1 µg/mL
same,MIC,[7],50 µg/mL
same,MIC,[8],1.56 µg/mL
same,MIC,[9],0.39 µg/mL
same,MIC,"[10]; ATCC8043, E. faecium ATCC 8043, Brain Heart Infusion agar, 20-24 hours, read-out: MIC",0.78 µg/mL
same,MIC,[11],1.56 µg/mL
same,MIC,[12],1.56 µg/mL
same,MIC,[13],50 µg/mL
same,MIC,"[14]; E. coli SS, Brain Heart Infusion agar, 20-24 hours",1.56 µg/mL
same,MIC,[15],1.56 µg/mL
same,MIC,[16],0.1 µg/mL
same,MIC,[17],1.56 µg/mL
same,MIC,"[18]; ATCC9341, read-out: MIC",0.2 µg/mL
same,MIC,[19],> 100 µg/mL
same,MIC,[20]; H560,50 µg/mL
CC[C@H]1OC(=O)[C@H](C)[C@@H](O[C@H]2C[C@@](C)(OC)[C@H](N)[C@H](C)O2)[C@H](C)[C@@H](O[C@@H]2O[C@H](C)C[C@H](N(C)C)[C@H]2O)[C@](C)(O)C[C@@H](C)[C@@H](N2CCCCC2)[C@H](C)[C@@H](O)[C@]1(C)O [Example 32],MIC,[1],1.56 µg/mL
same,MIC,[2],0.78 µg/mL
same,MIC,[3],25 µg/mL
same,MIC,[4],0.78 µg/mL
same,MIC,[5]; DC2,12.5 µg/mL
same,MIC,[6],0.1 µg/mL
same,MIC,[7],6.2 µg/mL
same,MIC,[8],0.78 µg/mL
same,MIC,[9],0.1 µg/mL
same,MIC,"[10]; ATCC8043, read-out: MIC",0.2 µg/mL
same,MIC,[11],0.39 µg/mL
same,MIC,[12],0.78 µg/mL
same,MIC,[13],6.2 µg/mL
same,MIC,[14],0.2 µg/mL
same,MIC,[21],1.56 µg/mL
same,MIC,[15],0.78 µg/mL
same,MIC,[22],1.56 µg/mL
same,MIC,[16]; read-out: MIC,0.02 µg/mL
same,MIC,[17],0.78 µg/mL
same,MIC,"[18]; ATCC9341, M. luteus ATCC 9341, Brain Heart Infusion agar, 20-24 hours, read-out: MIC",0.05 µg/mL
same,MIC,[19],> 100 µg/mL
same,MIC,"[20]; E. coli H560, Brain Heart Infusion agar, 20-24 hours, read-out: MIC",3.1 µg/mL
CC[C@H]1OC(=O)[C@H](C)[C@@H](O[C@H]2C[C@@](C)(OC)[C@@H](O)[C@H](C)O2)[C@H](C)[C@@H](O[C@@H]2O[C@H](C)C[C@H](N(C)C)[C@H]2O)[C@](C)(O)C[C@@H](C)C(=O)[C@H](C)[C@@H](O)[C@]1(C)O [erythromycin],ED50,"[23]; C203, po",12 mg/kg
same,ED50,"[23]; C203, sc",1.8 mg/kg
same,ED50,[24]; po,21.5 mg/kg
same,ED50,[24]; sc,0.9 mg/kg
same,ED50,"[25]; NCTC10649, po",98 mg/kg
same,ED50,"[25]; NCTC10649, sc",20 mg/kg
